# Experimental data from patent US20240033349A1, “VACCINE AND METHOD OF PROTECTION AGAINST CORONAVIRUS INFECTION” (priority 2020, published 2024).
# What was measured:
# [1] = test system: SARS-Cov virus (strain SARS-Covktp3); set-up: species or system mice; conditions: mouse, in vivo
# [2] = test system: MERS-CovN3/Jordanp3 virus; set-up: species or system mice; conditions: mouse, in vivo
# [3] = test system: virus of Venezuelan equine encephalomyelitis, strain Trinidad; set-up: species or system mice; conditions: mouse, in vivo
# [4] = test system: new coronavirus infection COVID-19; conditions: human, in vivo
# [5] = test system: SARS-Cov-2; conditions: human, in vivo
# [6] = clinical examples, unlike other phthalhydrazide derivatives
smiles,measurement,setting,value
"Nc1cccc2c(=O)[nH][nH]c(=O)c12.[Na] [Tamerit, 5-amino-1,2,3,4-tetrahydrophthalazine-1,4-dione sodium salt]",Protection effect,[1],50%
same,Protection effect,[2],50%
same,Survival rate higher than in animals immunized only with VVE,[3],25-30%
same,Survival rate of infected mice depending on the infecting dose,[3],60-100%
same,Development of early pulmonary fibrosis by computed tomography,[4],not observed in any patient
same,Indications for artificial lung ventilation,[4],none of the observed patients treated with Tamerit had indications for artificial lung ventilation
same,Infection with COVID-19 after contact with the patients,[4],No one of them got infected
same,Reduction of duration of clinical manifestations of the acute phase of the disease,[4],1.5-2 weeks
same,Time to complete regression of symptoms,[4],3 to 4 days
same,Control MSCT of the chest organs,[5],pronounced positive dynamics
same,Dynamics of clinical and laboratory data,[5],rapid positive dynamics of clinical and laboratory data
same,MSCT grade of lung lesion,[5],CT-2.
same,SARS-Cov-2 RNA test,[5],not detected.
same,ferritin,[5],ferritin-973.3 ng/ml
same,interleukin-6,[5],"924.6 pg/mL,"
same,"Toxic, cumulative, mutagenic or teratogenic effects",[6],"no toxic, cumulative, mutagenic or teratogenic effects"
